Test results from patent US9982265B2, “Inhibition of Bruton's tyrosine kinase (Btk) in the lung to treat severe lung inflammation and lung injury” (BOARD OF REGENTS, THE UNIVERSITY OF TEXAS SYSTEM, priority 2014, dated 2018).

How the values were obtained:
thrombomodulin (TM) = experiment: Thrombomodulin in BAL fluid by Western blot, LPS/IC induced ALI; format: in vivo, mice; conditions: FIG. 6D
Description: Western Blotting: BAL fluids were subjected to SDS PAGE electrophoresis, transferred onto PVDF membrane and further evaluated for the presence of thrombomodulin using anti-mouse TM antibody (M-17; Santa Cruz Biotechnology, Santa Cruz, Calif.). In some experiments cell culture media or cell lysates were analyzed for level of MPO or actin (EMD Millipore, Billerica, Mass. and Santa Cruz Biotechnology, respectively) or phospho-p40 phox (Santa Cruz Biotechnology).
Endothelial damage in this ALI model was also examined by assessing the release of thrombomodulin (TM), which is a membrane protein expressed on the capillary endothelium (40, 52). A Western Blot analysis of BAL fluid samples was performed (FIG. 6D) from control mice (Saline), mice with LPS/IC induced ALI, and mice treated with siRNA specific for Btk, or MMP-9, or control siRNA. The bar graph in FIG. 6D includes data from 3 experiments. For each repetition a fold over a corresponding control was calculated. Means of all repetitions as well as associated standard deviations were graphed. […] The same was true for mice that received nonspecific control siRNA (p<0.05).

[1] = system: mice with LPS/IC induced ALI; experiment: Two hit model of LPS/IC induced acute lung injury, Lung Injury Score from pulmonary histopathology; format: in vivo; conditions: Table 5; intranasal treatment after LPS, before ICs; samples 14 h after IC; score 0 to 2; means ± SD, 4-5 animals per group
Description: BALB/c mice (Taconic Germantown, N.Y.) were first injected intraperitoneally (i.p.) with either LPS or saline and 8 h later received anti-KC:KC immune complexes or saline (control) by intranasal (i.n.) route. Anti-KC:KC immune complexes were prepared according to the protocol routinely used in our laboratory (28). Some mice received Btk specific siRNA intranasally. In other experiments the animals were treated i.n. with siRNA specific for Btk (see SEQ ID NOs:18-25) or MMP-9 (Invitrogen), both conjugated (T3™-MAX Conjugation Kit (Bioo Scientific Corporation, Austin, Tex.) to F(ab′)2 fragments of anti-mouse neutrophil antibody Ly-6G1A8). F(ab′)2 fragments alone or conjugated to control siRNA (SEQ ID NO's 26 and 27) (Invitrogen) served as controls of the treatment. Two or fourteen hours after i.n. administration of either immune complexes or saline, the animals were euthanized and samples collected for further evaluation. To study role of neutrophil FcγRIII receptors neutrophils were first depleted by i.p. injection of vinblastine (31) followed by adoptive transfer of cells deficient in FcγRIII receptors prepared as described below. […] Lung dysfunction was assessed by analysis of pulmonary histopathology.
Pulmonary Histopathology: Lungs were fixed in ExCellPlus (AMTS, Lodi, Calif.), embedded in paraffin, and sectioned at 5 μm. […] The images of stained sections were evaluated for the presence of alveolar exudate, infiltration of inflammatory cells, and interstitial thickening. Lung Injury Score (LIS) was assessed as described earlier (28). Most images were assessed at magnification of over 400×. […] At the minimum twenty sections from each group of mice were evaluated and 4 investigators participated in the analysis of 50 or more fields per group. According to recommendation of “An Official American Thoracic Society Workshop Report: Features and Measurements of Experimental Acute Lung Injury in Animals” (Am J Respir Cell Mol Biol 44 725-738, 2011) more than 20 high power fields were independently scored (as described above) and at least 50% of each field was occupied by lung alveoli. […]

## Cont siRNA: control siRNA #8 (SEQ ID NO:26/27) conjugated to F(ab′)2 fragments of Ly6G1A8 (chain 1 UUCCUCUCCACGCGCAGUACAUUUA; chain 2 AAGGAGAGGUGCGCGUCAUGUAAAU; conjugated to antibody F(ab')2 fragment, attachment not given here; one strand is listed 3' to 5')
Thrombomodulin (TM)
  levels of thrombomodulin (TM) in BAL fluid: significantly increased levels
[1]
  Lung Injury Score: Edema fluid: 1.337 ± 0.170
  Lung Injury Score: Inflammatory infiltration: 1.824 ± 0.141
  Lung Injury Score: Thickening of alveolar septa: 1.607 ± 0.276
